Results published in PubChem BioAssay AID2060331 (Molecular Pharmacology Branch, DTP, NCI, 2025).
pIC50: −log10 of the molar value. Several values for one entry are separate records, joined by “and”; a condition that tells them apart may be missing. Equal entries are not always repeated. Blank lines part the entries; values can stand above or below the compound they belong to.

Test system: Hs578T multi-cell spheroids, viability
Assay: Anticancer human tumor Hs578T cell line growth inhibition [IpAb];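 note: drug exposure lasted 7 days before readout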
Settings: for viability, T/C: stronger effect = lower value
Source text: Combinatorial screen of targeted agents with ipatasertib and abemaciclib in multi-cell type tumor spheroids
A high-throughput screen of multi-cell type tumor spheroids was designed to identify active combinations of targeted small molecules and ipatasertib or abemaciclib. Complex spheroids include a stromal component modeled by human endothelial cells (HUVEC) and fibroblasts modeled by human mesenchymal stem cells (MSCs). The concentration ranges selected for each drug and investigational agent were based upon clinically achievable concentrations if the clinical Cmax of the agent was known.
Compounds. The drugs and investigational agents: ipatasertib (NSC767898), abemaciclib(NSC768073), selumetinib (NSC741078), trametinib (758246), adavosertib (NSC754352), everolimus (NSC733504), sapanisertib (NSC764658), vemurafenib (NSC761431), venetoclax (NSC766270), copanlisib (NSC809693), apelisib (NSC765974), palbociblib (NSC758247), vemurafenib (NSC761431), dabrafenib (NSC764134), ravoxertinib (NSC781343), BMS-387032 (NSC767048), sotorasib (NSC818433), talazoparib (NSC767125) and afursertib (NSC778305), were obtained from the National Cancer Institute (NCI) Developmental Therapeutics Program Chemical Repository. The FDA-approved anticancer drug set is available from the NCI Developmental Therapeutics Program. […] The stock solutions were prepared in dimethyl sulfoxide (DMSO, Sigma-Aldrich, St. Louis, MO, cat. D2650) at 800-fold the tested concentration and stored at -70 degrees C prior to their use. All drugs and investigational agents were tested over a range starting from a high concentration at or near the clinical Cmax and decreasing in half-log increments. If the clinical Cmax for an agent had not been determined, the highest concentration tested was 10 microM.
NCI60 Cell Culture. NCI60 cell lines were obtained from the NCI Developmental Therapeutics Program Tumor Repository. For each lot of cells, the Repository performed Applied Biosystems AmpFLSTR Identifiler testing with PCR amplification to confirm consistency with the published Identifier STR profile for each cell line. Cells were kept in continuous culture for no more than 20 passages. The optimal seeding densities for each of the cell lines at each time point assessed were determined prior to performing the concentration response studies. Briefly, the NCI60 human tumor lines were grown as monolayers in RPMI 1640 medium supplemented with 10% FBS and 2 mmol/L L-glutamine.
An additional 9 lines were from the NCI60 cell line panel including MDA-MB-231 breast carcinoma, MDA-MB-468 breast carcinoma, MCF7 breast carcinoma, Hs578T breast carcinoma, MALME-3M melanoma, SK-MEL-2 melanoma, SK-OV-3 ovarian carcinoma, DU-145 prostate carcinoma, PC-3 prostate carcinoma, all cell lines along with major genetic alterations are listed on Table 2. Pooled donor human umbilical vein endothelial cells (HUVEC, Lonza, cat. CC-2519) and human mesenchymal stem cells (hMSC, Lonza, cat. PT-2501) were purchased from Lonza (Walkersville, MD).
PDMR cell lines were grown in complete medium (DC medium): Dulbecco's modified Eagle's medium (DMEM)/F12 supplemented with 5% fetal bovine serum (FBS), 2 mM L-glutamine, 100 U/mL penicillin and 100 µg/ml streptomycin, 0.4 µg/ml hydrocortisone, 10 ng/ml epidermal growth factor (EGF) recombinant human protein, 24 µg/mL adenine, and 0.1 mg/mL primocin. During culture from frozen stock vials, PDMR cells were cultured in the same medium containing 10 µM Y-27632 (see Table 3). The PDCs were cultured in complete DMEM/F12 media without 10 microM Y-27632 dihydrochloride for at least two passages prior to the screen. The pooled donor HUVEC and hMSC were cultured in endothelial cell growth medium 2 (PromoCell, Heidelberg, Germany, cat. C-22011) and mesenchymal stem cell growth medium 2 (PromoCell, cat. C-28009), respectively. For all experiments, HUVEC and hMSC were used at passages </=5.
[…]

[1] = curve of first compound, second compound 0.01 µM
[2] = curve of first compound, second compound 0.0316 µM
[3] = curve of first compound, second compound 0.1 µM
[4] = curve of first compound, second compound 0.316 µM
[5] = curve of first compound, second compound 1 µM
[6] = second compound 0.01 µM, first compound 0.0316 µM
[7] = second compound 0.01 µM, first compound 0.1 µM
[8] = second compound 0.01 µM, first compound 0.316 µM
[9] = second compound 0.01 µM, first compound 1 µM
[10] = second compound 0.01 µM, first compound 3.16 µM
[11] = second compound 0.01 µM, first compound 10 µM
[12] = second compound 0.0316 µM, first compound 0.0316 µM
[13] = second compound 0.0316 µM, first compound 0.1 µM
[14] = second compound 0.0316 µM, first compound 0.316 µM
[15] = second compound 0.0316 µM, first compound 1 µM
[16] = second compound 0.0316 µM, first compound 3.16 µM
[17] = second compound 0.0316 µM, first compound 10 µM
[18] = second compound 0.1 µM, first compound 0.0316 µM
[19] = second compound 0.1 µM, first compound 0.1 µM
[20] = second compound 0.1 µM, first compound 0.316 µM
[21] = second compound 0.1 µM, first compound 1 µM
[22] = second compound 0.1 µM, first compound 3.16 µM
[23] = second compound 0.1 µM, first compound 10 µM
[24] = second compound 0.316 µM, first compound 0.0316 µM
[25] = second compound 0.316 µM, first compound 0.1 µM
[26] = second compound 0.316 µM, first compound 0.316 µM
[27] = second compound 0.316 µM, first compound 1 µM
[28] = second compound 0.316 µM, first compound 3.16 µM
[29] = second compound 0.316 µM, first compound 10 µM
[30] = second compound 1 µM, first compound 0.0316 µM
[31] = second compound 1 µM, first compound 0.1 µM
[32] = second compound 1 µM, first compound 0.316 µM
[33] = second compound 1 µM, first compound 1 µM
[34] = second compound 1 µM, first compound 3.16 µM
[35] = second compound 1 µM, first compound 10 µM

pIC50 (curve of compound): < 5.00
Compound: C=CC(=O)N1CCN(c2nc(=O)n(-c3c(C)ccnc3C(C)C)c3nc(-c4c(O)cccc4F)c(F)cc23)C(C)C1 (configuration not stated)
viability, T/C (compound 0.0316 µM): 103% and 104% | viability, T/C (compound 0.1 µM): 103% and 109% | viability, T/C (compound 0.316 µM): 113% and 116% | viability, T/C (compound 1 µM): 108% and 111% | viability, T/C (compound 3.16 µM): 106% and 95.6% | viability, T/C (compound 10 µM): 73.4% and 68.4%

Compound: C=CC(=O)N1CCN(c2nc(=O)n(-c3c(C)ccnc3C(C)C)c3nc(-c4c(O)cccc4F)c(F)cc23)C(C)C1 (configuration not stated) + CCN1CCN(Cc2ccc(Nc3ncc(F)c(-c4cc(F)c5nc(C)n(C(C)C)c5c4)n3)nc2)CC1
pIC50 [1]: < 5.00 | pIC50 [2]: < 5.00 | pIC50 [3]: < 5.00 | pIC50 [4]: < 5.00 | pIC50 [5]: < 5.00 | viability, T/C [6]: 97.5% | viability, T/C [7]: 103% | viability, T/C [8]: 101% | viability, T/C [9]: 96.2% | viability, T/C [10]: 98.8% | viability, T/C [11]: 74.5% | viability, T/C [12]: 96% | viability, T/C [13]: 97.2% | viability, T/C [14]: 100% | viability, T/C [15]: 96% | viability, T/C [16]: 92.3% | viability, T/C [17]: 76.8% | viability, T/C [18]: 92.5% | viability, T/C [19]: 86.3% | viability, T/C [20]: 94.1% | viability, T/C [21]: 102% | viability, T/C [22]: 92.5% | viability, T/C [23]: 77.2% | viability, T/C [24]: 93.2% | viability, T/C [25]: 95.5% | viability, T/C [26]: 98% | viability, T/C [27]: 101% | viability, T/C [28]: 92.8% | viability, T/C [29]: 77.9% | viability, T/C [30]: 104% | viability, T/C [31]: 107% | viability, T/C [32]: 112% | viability, T/C [33]: 118% | viability, T/C [34]: 101% | viability, T/C [35]: 88.4%

Compound: CCCS(=O)(=O)Nc1ccc(F)c(C(=O)c2c[nH]c3ncc(-c4ccc(Cl)cc4)cc23)c1F + CCN1CCN(Cc2ccc(Nc3ncc(F)c(-c4cc(F)c5nc(C)n(C(C)C)c5c4)n3)nc2)CC1
pIC50 [1]: 5.36 | pIC50 [2]: 5.38 | pIC50 [3]: 5.36 | pIC50 [4]: 5.33 | pIC50 [5]: 5.26 | viability, T/C [6]: 96.9% | viability, T/C [7]: 103% | viability, T/C [8]: 99.1% | viability, T/C [9]: 97.4% | viability, T/C [10]: 67% | viability, T/C [11]: 8.02% | viability, T/C [12]: 95.3% | viability, T/C [13]: 100% | viability, T/C [14]: 98.6% | viability, T/C [15]: 92.4% | viability, T/C [16]: 64.4% | viability, T/C [17]: 5.43% | viability, T/C [18]: 90.8% | viability, T/C [19]: 87.6% | viability, T/C [20]: 87.1% | viability, T/C [21]: 82.5% | viability, T/C [22]: 66.4% | viability, T/C [23]: 6.9% | viability, T/C [24]: 92.4% | viability, T/C [25]: 89.5% | viability, T/C [26]: 87.8% | viability, T/C [27]: 79.9% | viability, T/C [28]: 71.7% | viability, T/C [29]: 11.4% | viability, T/C [30]: 106% | viability, T/C [31]: 97.4% | viability, T/C [32]: 102% | viability, T/C [33]: 104% | viability, T/C [34]: 87.1% | viability, T/C [35]: 10.3%

Compound: Cn1cnc2c(F)c(Nc3ccc(Br)cc3Cl)c(C(=O)NOCCO)cc21 + CC(C)NCC(C(=O)N1CCN(c2ncnc3c2C(C)CC3O)CC1)c1ccc(Cl)cc1
pIC50 [3]: 5.64 | pIC50 [4]: 5.92 | pIC50 [5]: 6.40 | pIC50 (curve of first compound, second compound 3.16 µM): 6.91 | pIC50 (curve of first compound, second compound 10 µM): 7.58 | viability, T/C (second compound 0.1 µM, first compound 0.00949 µM): 96.2% | viability, T/C (second compound 0.1 µM, first compound 0.03 µM): 91.8% | viability, T/C (second compound 0.1 µM, first compound 0.0949 µM): 85.3% | viability, T/C (second compound 0.1 µM, first compound 0.3 µM): 84.2% | viability, T/C (second compound 0.1 µM, first compound 0.949 µM): 74.8% | viability, T/C (second compound 0.1 µM, first compound 3 µM): 42.8% | viability, T/C (second compound 0.316 µM, first compound 0.00949 µM): 87.7% | viability, T/C (second compound 0.316 µM, first compound 0.03 µM): 86.2% | viability, T/C (second compound 0.316 µM, first compound 0.0949 µM): 83.4% | viability, T/C (second compound 0.316 µM, first compound 0.3 µM): 64.9% | viability, T/C (second compound 0.316 µM, first compound 0.949 µM): 58% | viability, T/C (second compound 0.316 µM, first compound 3 µM): 30.4% | viability, T/C (second compound 1 µM, first compound 0.00949 µM): 77% | viability, T/C (second compound 1 µM, first compound 0.03 µM): 72% | viability, T/C (second compound 1 µM, first compound 0.0949 µM): 63.1% | viability, T/C (second compound 1 µM, first compound 0.3 µM): 54.4% | viability, T/C (second compound 1 µM, first compound 0.949 µM): 39.2% | viability, T/C (second compound 1 µM, first compound 3 µM): 19.3% | viability, T/C (second compound 3.16 µM, first compound 0.00949 µM): 53.8% | viability, T/C (second compound 3.16 µM, first compound 0.03 µM): 52.2% | viability, T/C (second compound 3.16 µM, first compound 0.0949 µM): 47.9% | viability, T/C (second compound 3.16 µM, first compound 0.3 µM): 49.4% | viability, T/C (second compound 3.16 µM, first compound 0.949 µM): 35.2% | viability, T/C (second compound 3.16 µM, first compound 3 µM): 12.4% | viability, T/C (second compound 10 µM, first compound 0.00949 µM): 52.6% | viability, T/C (second compound 10 µM, first compound 0.03 µM): 50.1% | viability, T/C (second compound 10 µM, first compound 0.0949 µM): 42.2% | viability, T/C (second compound 10 µM, first compound 0.3 µM): 43.1% | viability, T/C (second compound 10 µM, first compound 0.949 µM): 23.2% | viability, T/C (second compound 10 µM, first compound 3 µM): 5.18%
